US5633231A, “Valine-containing pseudopeptides with antiviral activity” (Bayer Aktiengesellschaft, priority 1993, dated 1997)

Columns and labels:
HCMV (Davis) = experiment: Anti-HCMV (Davis) activity: inhibition of the cytopathogenic effect in HELF cell cultures, 96-well screening test; assay type: cell-based, human cytomegalovirus
Procedure: (§1) The anti-HCMV effect was determined in a screening test system in 96-well microtitre plates with the aid of human embryonic lung fibroblast (HELF) cell cultures. The influence of the substances on the spread of the cytopathogenic effect was compared with that of the reference substance ganciclovir ([…]® sodium), a clinically approved anti-HCMV chemotherapeutic agent. The substances, dissolved (50 mM) in DMSO (dimethyl sulphoxide), are investigated on microtitre plates (96-well) at final concentrations of 1000-0.00048 μM (micromolar) in double determinations (4 substances/plate). In this test, both the toxic and cytostatic effects of the substances are recorded. […] After staining with neutral red and fixing with formalin/methanol, the plates are evaluated using a projection microscope (plaque viewer).

[1] = tested on: human embryonic lung fibroblast (HELF) cell cultures; experiment: Anti-cellular (toxic and cytostatic) effect on HELF cells in the same screening test; assay type: cell-based; details: 6 days at 37° C.
Procedure: as §1

- IC50 (HCMV (Davis); Human betaherpesvirus 5, 144 h, read-out: IC50 (μM) (HCMV) = concentration which elicits 50% inhibition of the CPE, HCMV (Davis)-infected HELF cells, 6 days, neutral red staining): 2 to 4 µM
Compound: Nc1nc(O)c2ncn(COC(CO)CO)c2n1 [Cymevene^R Na, ganciclovir]
- SI (selectivity index) (HCMV (Davis); HELF versus HCMV, definition given only as a drawing): 32-64
- CIC50 (μM) (HELF) = highest concentration at which no obvious anticellular effect is evident [1]: 125 µM
